Experimental data: patent publication US11034650B2, “Compounds useful for treating a Mannheimia haemolytica or Histophilus somni infection” (Intervet Inc., priority 2016, dated 2021)
Converted amounts (≈) assume the structure as drawn.

Tests used:
Assay type in all cases: cell-based
[1] = system: Pasteurella multocida PM 6267 (P 2225 (L386), reference strain, mouse infection strain); assay: MIC, broth-microdilution (CLSI VET01-A4), strain PM 6267; conditions: Pasteurella multocida strain PM 6267, broth-microdilution; unit assumed
Outline: (§1)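 Read-out is unaided visual inspection for turbidity. The minimum inhibitory concentration is the lowest tested level without detectable growth across a two-fold compound series.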

[2] = system: Mannheimia haemolytica MH 13065 (XB0446-6003.9, BRD field isolate); assay: MIC, broth-microdilution (CLSI VET01-A4), strain MH 13065; conditions: Mannheimia haemolytica strain MH 13065, broth-microdilution; unit assumed
Outline: as §1

[3] = system: Mannheimia haemolytica MH 12587 (1071, BRD field isolate, macrolide-resistance: erm+, E+); assay: MIC, broth-microdilution (CLSI VET01-A4), strain MH 12587; conditions: Mannheimia haemolytica strain MH 12587, broth-microdilution; unit assumed
Outline: as §1

[4] = system: Mannheimia haemolytica MH 6357 (M7/2, reference strain, cattle infection strain); assay: MIC, broth-microdilution (CLSI VET01-A4), strain MH 6357; conditions: Mannheimia haemolytica strain MH 6357, broth-microdilution; unit assumed
Outline: as §1

[5] = system: Mannheimia haemolytica MH 13093 (XB0472-6014.1, BRD field isolate); assay: MIC, broth-microdilution (CLSI VET01-A4), strain MH 13093; conditions: Mannheimia haemolytica strain MH 13093, broth-microdilution; unit assumed
Outline: as §1

[6] = system: Mannheimia haemolytica MH 10720 (154, BRD field isolate); assay: MIC, broth-microdilution (CLSI VET01-A4), strain MH 10720; conditions: Mannheimia haemolytica strain MH 10720, broth-microdilution; unit assumed
Outline: as §1

[7] = system: Mannheimia haemolytica MH 6374 (ATCC 33396, reference strain); assay: MIC, broth-microdilution (CLSI VET01-A4), strain MH 6374; conditions: Mannheimia haemolytica strain MH 6374, broth-microdilution; unit assumed
Outline: as §1

[8] = system: Pasteurella multocida PM 10775 (080130003051, BRD field isolate); assay: MIC, broth-microdilution (CLSI VET01-A4), strain PM 10775; conditions: Pasteurella multocida strain PM 10775, broth-microdilution; unit assumed
Outline: as §1

[9] = system: Pasteurella multocida PM 12080 (IV102277-0093, BRD field isolate); assay: MIC, broth-microdilution (CLSI VET01-A4), strain PM 12080; conditions: Pasteurella multocida strain PM 12080, broth-microdilution; unit assumed
Outline: as §1

[10] = system: Pasteurella multocida PM 6391 (ATCC 43137, reference strain); assay: MIC, broth-microdilution (CLSI VET01-A4), strain PM 6391; conditions: Pasteurella multocida strain PM 6391, broth-microdilution; unit assumed
Outline: as §1

SMILES	MIC PM 6267 [1] [µg/mL]	MIC PM 10775 [8] [µg/mL]	MIC PM 12080 [9] [µg/mL]	MIC PM 6391 [10] [µg/mL]	MIC MH 13065 [2] [µg/mL]	MIC MH 12587 [3] [µg/mL]	MIC MH 6357 [4] [µg/mL]	MIC MH 13093 [5] [µg/mL]	MIC MH 10720 [6] [µg/mL]	MIC MH 6374 [7] [µg/mL]
COCC(C)NCc1ccc(C#Cc2ccc(C(=O)N[C@H](C(=O)NO)C(C)C)cc2)cc1 (some centres unmarked) [Compound 198]	≤ 0.1	≤ 0.1	0.2 (≈ 0.457 µM)	0.4 (≈ 0.914 µM)	3.1 (≈ 7.09 µM)	12.5 (≈ 28.6 µM)	3.1 (≈ 7.09 µM)	6.3 (≈ 14.4 µM)	0.8 (≈ 1.83 µM)	6.3 (≈ 14.4 µM)
CC(C)(O)[C@H](NC(=O)c1ccc(C#Cc2ccc(CNC3CCCC3)cc2)cc1)C(=O)NO [Compound 227]	0.4 (≈ 0.89 µM)	0.2 (≈ 0.445 µM)	0.8 (≈ 1.78 µM)	0.8 (≈ 1.78 µM)	6.3 (≈ 14 µM)	25 (≈ 55.6 µM)	12.5 (≈ 27.8 µM)	12.5 (≈ 27.8 µM)	1.6 (≈ 3.56 µM)	12.5 (≈ 27.8 µM)
COc1ccc(CNCc2ccc(C#Cc3ccc(C(=O)N[C@H](C(=O)NO)C(C)(C)SC)cc3)cc2)cc1 [Compound 240]	0.2 (≈ 0.376 µM)	0.2 (≈ 0.376 µM)	0.4 (≈ 0.752 µM)	0.8 (≈ 1.5 µM)	1.6 (≈ 3.01 µM)	1.6 (≈ 3.01 µM)	1.6 (≈ 3.01 µM)	1.6 (≈ 3.01 µM)	0.4 (≈ 0.752 µM)	1.6 (≈ 3.01 µM)
CON=C(C)[C@H](NC(=O)c1ccc(C#Cc2ccc(CN3CCCC3)cc2)cc1)C(=O)NO [Compound 384]	12.5 (≈ 27.9 µM)	3.1 (≈ 6.91 µM)	1.6 (≈ 3.57 µM)	0.4 (≈ 0.892 µM)	6.3 (≈ 14 µM)	1.6 (≈ 3.57 µM)	6.3 (≈ 14 µM)	6.3 (≈ 14 µM)	3.1 (≈ 6.91 µM)	12.5 (≈ 27.9 µM)
CON=C(C)[C@H](NC(=O)c1ccc(C#Cc2ccc(CNCc3ccccn3)cc2)cc1)C(=O)NO [Compound 390]	3.1 (≈ 6.38 µM)	0.4 (≈ 0.824 µM)	0.2 (≈ 0.412 µM)	≤ 0.1	0.8 (≈ 1.65 µM)	0.2 (≈ 0.412 µM)	0.4 (≈ 0.824 µM)	0.8 (≈ 1.65 µM)	0.8 (≈ 1.65 µM)	1.6 (≈ 3.3 µM)

Now from value to molecule, other results behind:

MIC PM 6267 [1] [µg/mL]	MIC PM 10775 [8] [µg/mL]	MIC PM 12080 [9] [µg/mL]	MIC PM 6391 [10] [µg/mL]	SMILES	MIC MH 13065 [2] [µg/mL]	MIC MH 12587 [3] [µg/mL]	MIC MH 6357 [4] [µg/mL]	MIC MH 13093 [5] [µg/mL]	MIC MH 10720 [6] [µg/mL]	MIC MH 6374 [7] [µg/mL]
0.4 (≈ 0.738 µM)	≤ 0.1	≤ 0.1	0.2 (≈ 0.369 µM)	CC(C)([C@H](NC(=O)c1ccc(C#Cc2ccc(CNCc3ncccn3)s2)cc1)C(=O)NO)S(C)(=O)=O [Compound 322]	0.8 (≈ 1.48 µM)	1.6 (≈ 2.95 µM)	0.4 (≈ 0.738 µM)	0.8 (≈ 1.48 µM)	≤ 0.1	1.6 (≈ 2.95 µM)
25 (≈ 54.8 µM)	1.6 (≈ 3.5 µM)	0.8 (≈ 1.75 µM)	0.2 (≈ 0.438 µM)	CC(=O)C(NC(=O)c1ccc(C#Cc2ccc(CNCc3cccnc3)cc2)cc1)C(=O)NO (centres unmarked) [Compound 407]	6.3 (≈ 13.8 µM)	1.6 (≈ 3.5 µM)	3.1 (≈ 6.79 µM)	6.3 (≈ 13.8 µM)	6.3 (≈ 13.8 µM)	6.3 (≈ 13.8 µM)
0.8 (≈ 1.68 µM)	≤ 0.1	0.4 (≈ 0.841 µM)	0.8 (≈ 1.68 µM)	COCCNCc1ccc(C#Cc2ccc(C(=O)N[C@H](C(=O)NO)C(C)(C)SC)cc2)s1 [Compound 302]	0.8 (≈ 1.68 µM)	1.6 (≈ 3.36 µM)	0.4 (≈ 0.841 µM)	0.8 (≈ 1.68 µM)	≤ 0.1	0.8 (≈ 1.68 µM)
0.8 (≈ 1.49 µM)	≤ 0.1	0.4 (≈ 0.744 µM)	0.4 (≈ 0.744 µM)	COc1ccc(CNCc2ccc(C#Cc3ccc(C(=O)N[C@H](C(=O)NO)C(C)(C)SC)cc3)s2)cc1 [Compound 305]	0.8 (≈ 1.49 µM)	3.1 (≈ 5.77 µM)	0.8 (≈ 1.49 µM)	1.6 (≈ 2.98 µM)	0.2 (≈ 0.372 µM)	0.8 (≈ 1.49 µM)
≤ 0.1	≤ 0.1	≤ 0.1	≤ 0.1	CC(C)([C@H](NC(=O)c1ccc(C#Cc2ccc(CNCc3ccco3)s2)cc1)C(=O)NO)S(C)(=O)=O [Compound 321]	0.2 (≈ 0.378 µM)	0.4 (≈ 0.755 µM)	≤ 0.1	0.2 (≈ 0.378 µM)	≤ 0.1	≤ 0.1
0.4 (≈ 0.748 µM)	≤ 0.1	≤ 0.1	0.4 (≈ 0.748 µM)	CC(C)([C@H](NC(=O)c1ccc(C#Cc2ccc(CNCc3ccccc3)nc2)cc1)C(=O)NO)S(C)(=O)=O [Compound 351]	1.6 (≈ 2.99 µM)	1.6 (≈ 2.99 µM)	0.4 (≈ 0.748 µM)	0.8 (≈ 1.5 µM)	≤ 0.1	0.4 (≈ 0.748 µM)
